GI50 and TGI data for twelve compounds are collected here from PubChem BioAssay (NCI).

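The compound was tested at five concentrations on cells cultured in 96-well plates, with a 48-hour exposure period. Here, GI50 denotes the concentration required for 50% inhibition of growth. TGI: concentration producing complete growth inhibition.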 Some results are limits rather than exact numbers.

Test systems include MCF7 breast; MDA-MB-435; DU-145 prostate; HS 578T breast; MDA-MB-231 breast.
Assay in all cases: DTP human tumour cell line panel, 48 h

For orientation: GI50 means the concentration giving 50% growth inhibition. What is called TGI is the concentration at which net growth stops. Read a high TGI as less potent growth arrest.

Regarding `COc1ccc(/C=C2\CCCC3=C2NC(C)=NC3c2ccc(OC)c(OC)c2)cc1OC` (stereo not given), the GI50 with MCF7 breast is 2.44 µM; in the experiment on MDA-MB-435, 1.05 µM; in the experiment on DU-145 prostate, 16.5 µM; in the experiment on HS 578T breast, 39.1 µM; with MDA-MB-231 breast, 12.9 µM. In addition, the TGI is > 100 µM in the experiment with MCF7 breast; > 100 µM with MDA-MB-435; > 100 µM with DU-145 prostate; > 100 µM in the experiment with HS 578T breast; 75.3 µM with MDA-MB-231 breast.

Turning to `Fc1ccc(Nc2nccc(-c3c(-c4ccc(C(F)(F)F)cc4)nn4ncccc34)n2)cc1F`, the GI50 in the experiment with MCF7 breast is > 20.2 µM; in the experiment with MDA-MB-435, > 25 µM; in the experiment on DU-145 prostate, > 25 µM; with HS 578T breast, > 25 µM; with MDA-MB-231 breast, > 25 µM. Besides, the TGI in the experiment with MCF7 breast, with MDA-MB-435, in the experiment with DU-145 prostate, with HS 578T breast and in the experiment on MDA-MB-231 breast was > 25 µM each time.

For `CC(=O)OC1C2(CC3N4C(=O)C5(CO)SSC4(CC31O)C(=O)N5C)OC(C)C(C)(C)C2=O` (stereo not given), the concentration for 50% growth inhibition (GI50) is < 0.0139 µM with MCF7 breast, 1.94 µM with MDA-MB-435, 0.0449 µM with HS 578T breast and < 0.01 µM in the experiment with MDA-MB-231 breast. Also, the TGI came to 0.403 µM with MCF7 breast; 3.75 µM with MDA-MB-435; 0.267 µM in the experiment on DU-145 prostate; 0.213 µM in the experiment on HS 578T breast; 0.0558 µM in the experiment with MDA-MB-231 breast.

In the case of `Cc1ccc2c(c1)ncn2-c1ncnc2c1CC(C)c1ccccc1N2C` (stereo not given), the concentration for 50% growth inhibition (GI50) was 0.0368 µM with MCF7 breast, 0.244 µM in the experiment with DU-145 prostate, 0.104 µM in the experiment on HS 578T breast and 0.192 µM in the experiment on MDA-MB-231 breast. In addition, the total growth inhibition concentration (TGI) in the experiment on MCF7 breast was found to be 12.5 µM; in the experiment with DU-145 prostate it was 15.6 µM; in the experiment on HS 578T breast it was 51 µM; with MDA-MB-231 breast it was 16.6 µM.

`COc1ccc(-c2ccc(/C=N/n3c(COc4ccc(Cl)cc4)n[nH]c3=S)o2)c([N+](=O)[O-])c1`: the GI50 in the experiment on MCF7 breast is 16.9 µM; with MDA-MB-435, 25.9 µM; in the experiment with HS 578T breast, 47.7 µM; in the experiment on MDA-MB-231 breast, 14.2 µM. Also, the TGI is 56.9 µM in the experiment on MCF7 breast, > 100 µM with MDA-MB-435, > 100 µM with HS 578T breast and 48.5 µM in the experiment with MDA-MB-231 breast.

Take `COc1cnc2c(c1)C(=O)c1c-2n(CCCN2CCCC2)c(=O)c2cc(Cl)ccc12`: the GI50 was 5.06 µM with MDA-MB-435, 6.87 µM in the experiment with HS 578T breast and 6.15 µM in the experiment with MDA-MB-231 breast. Moreover, the total growth inhibition concentration (TGI) in the experiment on MDA-MB-435 came to 10.9 µM; in the experiment with HS 578T breast, 17.9 µM; in the experiment on MDA-MB-231 breast it was 15.2 µM.

`S=c1ssc(Sc2ccccn2)c1Cl`: the figures for the GI50 in the experiment with MDA-MB-435, in the experiment on DU-145 prostate and with MDA-MB-231 breast were 16.8 µM, 6.52 µM and 12 µM, respectively. The total growth inhibition concentration (TGI) was 31.5 µM in the experiment with MDA-MB-435, 20.2 µM with DU-145 prostate and 24.4 µM in the experiment on MDA-MB-231 breast.

As for `COc1cc(/C=C(/c2ccccc2)[N+](=O)[O-])c(OC)c2c1OCO2`, the GI50 with MDA-MB-435 was 1.5 µM; in the experiment on DU-145 prostate, 1.64 µM; in the experiment with HS 578T breast it was 2.99 µM; with MDA-MB-231 breast, 1.7 µM. Besides, the concentration for total growth inhibition (TGI) came out at 3.08 µM in the experiment with MDA-MB-435, 3.02 µM in the experiment with DU-145 prostate, 14.9 µM with HS 578T breast and 3.33 µM with MDA-MB-231 breast.

For `C/C1=C\CC[C@@](C)(O)[C@@H]2CC3[C@@H](OC(=O)C34CC4)[C@@H](O2)[C@H](C)CCC1` (stereo not given in full), the concentration for 50% growth inhibition (GI50) in the experiment on MCF7 breast was 0.238 µM; with MDA-MB-435, 20.3 µM; with MDA-MB-231 breast, 19.6 µM. Also, the total growth inhibition concentration (TGI) with MCF7 breast was determined as 25.3 µM; in the experiment on MDA-MB-435, 44.2 µM; in the experiment with MDA-MB-231 breast it was 43.5 µM.

With `COc1ccc2c(c1)nc(N)c1c3cccnc3cn21`, the GI50 in the experiment with MCF7 breast was 0.302 µM; in the experiment with DU-145 prostate, 0.0561 µM; with HS 578T breast it was 0.0951 µM; in the experiment with MDA-MB-231 breast it was 0.556 µM. Further, the total growth inhibition concentration (TGI) is 17.5 µM with MCF7 breast, > 33.6 µM with DU-145 prostate, > 49.6 µM with HS 578T breast and 22.4 µM in the experiment on MDA-MB-231 breast.

Take `Cc1cc(N2CCCC2)nc(N(CCCNc2ccnc3cc(Cl)ccc23)Cc2ccc3c(c2)OCO3)n1`: the GI50 was 1.17 µM with MCF7 breast, 1.26 µM in the experiment with MDA-MB-435, 1.74 µM in the experiment on HS 578T breast and 0.681 µM with MDA-MB-231 breast. The TGI in the experiment on MCF7 breast came out at 4.98 µM; with MDA-MB-435, 2.56 µM; with HS 578T breast, 4.21 µM; in the experiment on MDA-MB-231 breast, 3.42 µM.

As for `CS(=O)(=O)Nc1cc(-c2ccc3ncnc(Nc4ccc5c(cnn5Cc5ccc(F)cc5)c4)c3c2)cnc1Cl`, the concentration for 50% growth inhibition (GI50) is 0.404 µM in the experiment with MCF7 breast, 1.1 µM in the experiment on MDA-MB-435, 2.66 µM with DU-145 prostate and 0.246 µM with HS 578T breast. The TGI in the experiment with MCF7 breast was 10.2 µM; in the experiment with MDA-MB-435, 3.67 µM; in the experiment with DU-145 prostate, 19.1 µM; in the experiment with HS 578T breast it was 2.04 µM.
